Test results: patent US20220023419A1, “INHIBITING INFLAMMATION” (THE COUNCIL OF THE QUEENSLAND INSTITUTE OF MEDICAL RESEARCH, priority 2018, published 2022)

Test system: EpCAM+ epithelial cells in intestinal organoids
Experiment: Intestinal organoids from small intestine cultured with IFNγ, MHC class-II expression
Type: cell-based, mouse
Details: organoids from B6.MHC class-II-GFP or B6.WT mice cultured with IFNγ
From the text: High levels of IFN-γ are secreted by both ILC1 and by conventional T cells in the small intestine. The mechanisms controlling MHC class-II expression by IEC, focusing on interferon (IFN) γ signalling were delineated, since this cytokine is known to potently induce MHC class-II expression. […] To understand the potential sources of IFNγ driving the expression of MHC class II, Rag^−/− common-γ-chain^−/− which lack innate lymphocyte populations, and Rag^−/− mice that lack only conventional TCR-rearranged T cells, were analyzed. […] After TBI-induced inflammation, conventional T cells were required for the upregulation of MHC class II in the ileum. […] In contrast, TBI induced IFN-γ secretion from conventional T cells (CD4^+ Tcon, CD8^+ Tcon) but not innate lymphocyte populations (not shown). […] Thus, constitutive MHC class-II expression on IEC in the ileum causes local T cell activation and IFNγ secretion, consistent with the induction of a local cytokine feed-forward cascade that amplifies MHC class-II expression on IEC. In order to confirm that the induction of MHC class-II expression by IEC was a direct effect of IFNγ, intestinal organoids were cultured from the small intestine of B6.MHC class-II-GFP or B6.WT mice with IFNγ.

Substance: IFNγ: cytokine added to intestinal organoid cultures; known to potently induce MHC class-II expression
- MHC class-II expression by EpCAM+ epithelial cells in organoids: did so rapidly in the presence of IFNγ
